Experimental data published in patent US9212196B2, “Hypophosphorous acid derivatives having antihyperalgic activity and biological applications thereof” (UNIVERSITE PARIS DESCARTES, priority 2011, dated 2015).

Legend:
[1] = system: carrageenan inflammatory pain model; experiment: Paw pressure test in carrageenan inflammatory pain model in rats; format: in vivo, rat
Description: After the induction period of the neuropathy or inflammation, various amounts of derivative 2 dissolved in serum have been injected in rats, (from 0.5 to 15 μg/rat, i.t. from 1 to 30 mg/kg, i.p.) on time-course of vocalization threshold to paw pressure. The results obtained on healthy animals are given on FIG. 1. They are expressed by the time course curves of means+/−SEM of vocalization threshold in grams (n=6-8 rats per group) (A) or by the area under the curve (B). Morphine (10 μg/rat, i.t.) is used as a positive control. […] FIG. 2 illustrates the effect of intrathecal administration of derivative 2 on the vocalization threshold to paw pressure in the carrageenan inflammatory pain model (effect of derivative 2 (0.5, 1, 5, 10 μg/rat, i.t.) on time-course of vocalization threshold to paw pressure). Morphine (10 μg/rat, i.t.) is used as a positive control. […] Nociceptive thresholds, expressed in grams (g), were measured with a Ugo Basile analgesimeter (Apelex, tip diameter of the probe: 1 mm, weight: 30 g) by applying an increasing pressure to the right hind paw of rats until a squeak (vocalization threshold) was obtained (cut-off was 750 g except carrageenan treated animals for which the cut-off was 500 g). The treatments were done after the measurement of two consecutive stable vocalization threshold values and their effects were assessed 15, 30, 45, 60, 90, and 120 min after. […]

[2] = system: CCI neuropathic pain model; experiment: Paw pressure test in CCI neuropathic pain model in rats; format: in vivo, rat
Description: After the induction period of the neuropathy or inflammation, various amounts of derivative 2 dissolved in serum have been injected in rats, (from 0.5 to 15 μg/rat, i.t. from 1 to 30 mg/kg, i.p.) on time-course of vocalization threshold to paw pressure. The results obtained on healthy animals are given on FIG. 1. They are expressed by the time course curves of means+/-SEM of vocalization threshold in grams (n=6-8 rats per group) (A) or by the area under the curve (B). Morphine (10 μg/rat, i.t.) is used as a positive control. […] FIG. 4 illustrates the effect of intrathecal administration of derivative 2 on the vocalization threshold to paw pressure in the CCI neuropathic pain model (effect of derivative 2 (1, 5, 10 μg/rat, i.t.) on time-course of vocalization threshold to paw pressure). Gabapentin (100 mg/kg, p.o.) is used as a positive control. […] The effect of intrathecal administration of derivative 2 (10 μg/rat, i.t.) on the vocalization threshold to paw pressure in the CCI neuropathic pain model after mGluR4 or mismatch ODN treatment is illustrated by FIG. 4. […] The animals were submitted to the paw pressure test previously described by Randall and Selitto (1957). Nociceptive thresholds, expressed in grams (g), were measured with a Ugo Basile analgesimeter (Apelex, tip diameter of the probe: 1 mm, weight: 30 g) by applying an increasing pressure to the right hind paw of rats until a squeak (vocalization threshold) was obtained (cut-off was 750 g except carrageenan treated animals for which the cut-off was 500 g). The treatments were done after the measurement of two consecutive stable vocalization threshold values and their effects were assessed 15, 30, 45, 60, 90, and 120 min after. Unilateral peripheral mononeuropathy was induced according to the method described by Bennett and Xie (1988). Briefly, after determining vocalization thresholds, rats were anesthetized with sodium pentobarbital (50 mg/kg i.p.) and four chromic gut (5-0) ligatures were tied loosely (with about 1-mm spacing) around the right common sciatic nerve. The nerve was constricted to a barely discernible degree, so that circulation through the epineurial vasculature was not interrupted. Only animals presenting a decrease ≧15% of the presurgery value of vocalization threshold were selected, i.e., 90% of ligated animals (presurgery value: 379±7 g, pre-drug value: 188±7 g). Intrathecal injections were performed, under isoflurane anesthesia (4% induction, 2% maintenance), as previously described (Mestre et al., 1994). Briefly, the anesthetized rat was held in one hand by the pelvic girdle and a 25-gauge X1-inch needle connected to a 25 μL Hamilton syringe was inserted into the subarachnoidal space between lumbar vertebrae L5 and L6, until a tail flick was elicited. The syringe was held in position for few seconds after the injection of a volume of 10 μL/rat. AS ODN was designed based on rat mGluR4 sequence in regions lacking known splice variants. […]. One ODN with scramble arrangement in the base composition compared to the 18-mer specific as was used as control for sequence-independent effects of ODN treatments. […] Pain scores were determined using standard methods in strict conformity with ethical standards (Zimmermann M., 1983) before ODN treatments and then on day 4 in the afternoon. […]

Structure (SMILES): N[C@@H](CCP(=O)(O)C(O)c1ccc(OCC(=O)O)cc1)C(=O)O (stereo partly drawn) [Derivative 2, [((3S)-3-Amino-3-carboxy)propyl][(4-(carboxymethoxy)phenyl)hydroxymethyl]phosphinic Acid]
- antihyperalgesic effect on vocalization threshold to paw pressure ([1]; carrageenan inflammatory pain, rats, 0.5-10 μg/rat i.t., FIG. 2): abolishes the excess of mechanical pain
- antihyperalgesic effect compared to morphine ([1]; inflammatory pain, morphine 10 μg/rat i.t. as control): close to the one of morphine
- antihyperalgesic effect on vocalization threshold to paw pressure ([2]; CCI neuropathic pain, rats, 1-10 μg/rat i.t.): abolishes the excess of mechanical pain
- antihyperalgesic effect after antisense oligonucleotides against mGlu4 ([2]; CCI neuropathic rats, 10 μg/rat i.t., versus saline or mismatch ODN): significantly reduced
- mechanical antihyperalgesia after knockdown of spinal mGlu4 expression by antisense oligonucleotides ([2]; FIG. 7 legend, model not named): reduces mechanical antihyperalgesia
- antihyperalgesic effect compared to gabapentine ([2]; neuropathy model, gabapentine 100 mg/kg per os as control): significantly higher than the one of gabapentine
